Assay results: patent US20200268779A1, “USE OF SECOISOLARICIRESINOL DIGLUCOSIDES (SDGs) AND RELATED COMPOUNDS FOR PROTECTION AGAINST RADIATION-INDUCED CARDIOVASCULAR DYSFUNCTION” (THE TRUSTEES OF THE UNIVERSITY OF PENNSYLVANIA, priority 2017, published 2020)

Tested on: mice exposed to thoracic radiation
Assay: Thoracic radiation exposure in mice, non-invasive pulse oximetry (MouseOx)
Assay type: in vivo
Settings: male C57/LJ mice, single fraction thoracic radiation, LGM2605 post exposure daily for 3 weeks or daily for 3 months, measured 130-140 days post radiation
Method: FIG. 1. Arterial Oxygen saturation (A) and Pulse Distention (B) were measured in living mice (n=5), between 130 and 140 days post single fraction thoracic radiation exposure.
Mice (male, C57/LJ) were exposed to thoracic radiation and evaluated for multiple cardio-pulmonary measurements such as arterial oxygen saturation and pulse distention using non-invasive Pulse Oximetry (MouseOx non-invasive vital signs monitor STARR Life Sciences Corp., Oakmont, Pa.).
Pulse Distention is the amplitude of the cardiac light absorption signals. Pulse Distention is a hemodynamic measurement obtained by the pulse oximetry software, a measure of the local blood flow (carotid arteries) at the sensor location. […] This could indicate that LGM2605 helps reduce downstream effects of inflammation in tissues other than the lung.

## COc1cc(C[C@@H](CO[C@@H]2O[C@H](CO)[C@@H](O)[C@H](O)[C@H]2O)[C@H](CO[C@@H]2O[C@H](CO)[C@@H](O)[C@H](O)[C@H]2O)Cc2ccc(O)c(OC)c2)ccc1O [LGM2605, secoisolariciresinol diglucoside]
Decreased significantly in irradiated controls (FIG. 1B)
  Pulse distention: remained at baseline levels
Vs irradiated controls and vehicle (FIG. 1A)
  Arterial blood oxygenation (arterial oxygen saturation): improved arterial blood oxygenation
